Data: patent publication US20220304998A1, “REBAMIPIDE FOR USE IN PREVENTION AND TREATMENT OF CROHN'S DISEASE” (SQUARE POWER LTD., priority 2019, published 2022)

Legend:
[1] = system: patients suffering from Crohn's disease; assay: Clinical course, response and tolerability in Crohn's disease patient case reports; format: in vivo, human; details: for adverse reaction: affecting skin and joints
Source text: (§1) Several patients suffering from Crohn's disease for at least 5 years without sufficient response to standard treatment were given rebamipide tablets three times a day. […] The severity of the disease was quantified by the CDAI, and the level of inflammation by fecal calprotectin.

[2] = system: patients suffering from Crohn's disease; assay: Crohn's Disease Activity Index (CDAI) in Crohn's disease patients given rebamipide tablets; format: in vivo, human
Source text: as §1
Crohn's Disease Activity Index (CDAI) is a research tool used to quantify the symptoms of patients with Crohn's disease. It consists of eight factors, each summed after adjustment with a weighting factor. Remission of Crohn's disease is defined as CDAI below 150, whereas severe disease is defined as a value of greater than 450.

[3] = oral administration; cited from earlier work
Calprotectin (FC) = assay: Fecal calprotectin in stool samples by ELISA kit (EK-CAL, Bühlmann); format: in vivo, human; details: for fecal calprotectin level: Example 1; for calprotectin: Example 2
Source text: as §1
Calprotectin (FC) is a small calcium-binding protein that is used as a biomarker for inflammatory bowel diseases since its fecal concentration correlates well with the disease severity. Calprotectin values lower than 200 μg/g feces are considered the normal level. It was measured in stool samples using commercially available enzyme-linked immunosorbent assay (ELISA) kit (EK-CAL, Bühlmann).

[4] = summary of patient sample, add-on to corticosteroid

infliximab: monoclonal antibody against TNFα
adverse reaction ([1]; Example 1): immunological response had developed

CCCC1O[C@@H]2C[C@H]3[C@@H]4CCC5=CC(=O)C=C[C@]5(C)[C@H]4[C@@H](O)C[C@]3(C)[C@]2(C(=O)CO)O1 (stereo partly shown) [budesonide]
duration of maintained remission ([1]; Example 3, therapy with budesonide and mesalazine): about 10 years

Cn1cnc([N+](=O)[O-])c1Sc1ncnc2nc[nH]c12 [azathioprine]
adverse reaction leading to discontinuation ([1]; Example 3, discontinued after two weeks): acute pancreatitis

C[C@H]1C[C@@H]2[C@H]([C@@H](O)C[C@@]3(C)[C@H]2CC[C@]3(O)C(=O)CO)[C@@]2(C)C=CC(=O)C=C12 [methylprednisolon]
treatment outcome of corticosteroid alone after relapse ([1]; Example 1, methylprednisolon 24 mg/day before rebamipide): without success

adalimumab
adverse reaction ([1]; Example 1): immunological response had developed

O=C(NC(Cc1cc(=O)[nH]c2ccccc12)C(=O)O)c1ccc(Cl)cc1 (stereo not shown) [rebamipide, 2-[(4-chlorobenzoyl)amino]-3-(2-oxo-1H-quinolin-4-yl)propanoic acid]
disease activity on rebamipide only after corticosteroid withdrawal ([1]; Example 1, patient continued only rebamipide): No worsening in disease activity | disease activity on rebamipide only after prednisone discontinuation ([1]; Example 2, patient continued only rebamipide 100 mg t.i.d.): No worsening in disease activity | clinical symptoms ([1]; Example 3, after 14 days of rebamipide 100 mg three times daily with prednisone 50 mg/day): alleviation of the clinical symptoms | disease activity on rebamipide only after prednisone withdrawal ([1]; Example 3, patient continued only rebamipide): No worsening in disease activity | maintenance of remission ([1]; rebamipide alone, long-term): able to maintain remission | tolerability of long-term therapy ([1]; rebamipide alone, long-term): well tolerated | remission in patients who exhausted standard treatment options [1, 4]: induce remission | CDAI ([2]; Example 1, person, Crohn's ileocolitis, rebamipide 100 mg three times daily with methylprednisolon 24 mg/day, after 6 weeks, relapse value 358): 181 points | CDAI ([2]; Example 1, after another 6 weeks, corticosteroid dose reduced to half, rebamipide 100 mg three times daily): 73 points | CDAI ([2]; Example 2, person, Crohn's ileocolitis, rebamipide 200 mg t.i.d. add-on to prednisone 40 mg/day, after 6 weeks, relapse value 479): 225 points | CDAI ([2]; Example 2, after another 6 weeks, rebamipide 100 mg t.i.d., prednisone tapered from 30 mg/day by 10 mg every 2 weeks): 84 points | CDAI ([2]; Example 3, person, Crohn's ileitis, rebamipide 100 mg three times daily with prednisone 50 mg/day, 25 mg after 14 days, after another 6 weeks, initial value 377): 98 points | absorption in the GI tract [3]: poorly absorbed | fecal calprotectin level (Calprotectin (FC); after another 6 weeks, corticosteroid dose reduced to half, rebamipide 100 mg three times daily): 63 µg/g | fecal calprotectin level (Calprotectin (FC); rebamipide 100 mg three times daily with methylprednisolon 24 mg/day, after 6 weeks, relapse value up to 1939): 228 µg/g | calprotectin (Calprotectin (FC); after another 6 weeks, rebamipide 100 mg t.i.d., prednisone tapered from 30 mg/day by 10 mg every 2 weeks): 110 µg/g | calprotectin (Calprotectin (FC); rebamipide 200 mg t.i.d. add-on to prednisone 40 mg/day, after 6 weeks, relapse value 2215): 356 µg/g | calprotectin level (Calprotectin (FC); Example 3, rebamipide 100 mg three times daily with prednisone 50 mg/day, 25 mg after 14 days, after another 6 weeks, initial value up to 1051): 122 µg/g | effect on calprotectin levels (Calprotectin (FC); [4]): normalize calprotectin levels

C[C@]12C=CC(=O)C=C1CC[C@@H]1[C@@H]2C(=O)C[C@@]2(C)[C@H]1CC[C@]2(O)C(=O)CO [prednisone]
treatment outcome of corticosteroid alone after relapse ([1]; Example 2, prednisone 40 mg/day before rebamipide): not able to reach remission
